A short description of assay [1]: Inhibition of PARP1 in human Jurkat cells assessed as reduction of cell viability after 96 hrs by MTS assay.
The nature of assay [2]: Inhibition of PARP1 in human Jurkat cells assessed as reduction of cell viability after 96 hrs by MTS assay in presence of 100 uM of temozolomide.

pEC50: −log10 of the molar value.

In the case of `CCOc1cc(CN2CCN(c3ccc(C(=O)NC4CC4)cc3C)CC2)cc2c1OC(C)C(=O)N2` (configuration not stated), the results for the pEC50 in assay [1] and in assay [2] were 4.00 and 7.70, respectively.
The matching figures for `CCNC(=O)c1ccc(N2CCN(Cc3cc4c(c(OCC)c3)OC(C)C(=O)N4)CC2)c(C)c1` (configuration not stated): 4.00 and 7.70.
The matching figures for `CCOc1cc(CN2CCN(c3ccc(C(=O)NC)cc3C)CC2)cc2c1OC(C)C(=O)N2` (configuration not stated): 4.59 and 7.70.
The matching figures for `COc1cc(CN2CCN(c3ccc(C(=O)NC4CC4)cc3C)CC2)cc2c1OC(C)C(=O)N2` (configuration not stated): 4.11 and 7.70.
As for `CCNC(=O)c1ccc(N2CCN(Cc3cc4c(c(OC)c3)OC(C)C(=O)N4)CC2)c(C)c1` (configuration not stated), the pEC50 in assay [1] is 4.36; in assay [2], 8.00.
The matching figures for `CNC(=O)c1ccc(N2CCN(Cc3cc4c(c(OC)c3)OC(C)C(=O)N4)CC2)c(C)c1` (configuration not stated): 4.00 and 7.22.
For the compound `Cc1cc(C(=O)NC2CC2)ccc1N1CCN(Cc2cc(C)c3c(c2)NC(=O)C(C)O3)CC1` (configuration not stated), the pEC50 was 4.00 in assay [1] and 4.74 in assay [2].
As to `CCNC(=O)c1ccc(N2CCN(Cc3cc(C)c4c(c3)NC(=O)C(C)O4)CC2)c(C)c1` (configuration not stated), the pEC50 in assay [1] was 4.26; in assay [2], 5.05.
The matching figures for `CNC(=O)c1ccc(N2CCN(Cc3cc(C)c4c(c3)NC(=O)C(C)O4)CC2)c(C)c1` (configuration not stated): 4.11 and 5.05.
On to `CCNC(=O)c1ccc(N2CCN(Cc3cc(C)c4c(c3)NC(=O)C(C)O4)CC2)cc1` (configuration not stated), for which the pEC50 is 4.03 in assay [1] and 5.05 in assay [2].
The matching figures for `CNC(=O)c1ccc(N2CCN(Cc3cc(C)c4c(c3)NC(=O)C(C)O4)CC2)cc1` (configuration not stated): 4.12 and 4.96.
For `CCNC(=O)c1ccc(N2CCN(Cc3ccc4c(c3)NC(=O)C(C)O4)CC2)c(Cl)c1` (configuration not stated), the pEC50 in assay [1] is 4.00; in assay [2] it was 5.40.
As for `CCNC(=O)c1ccc(N2CCN(Cc3ccc4c(c3)NC(=O)C(C)O4)CC2)cc1` (configuration not stated), the pEC50 in assay [1] was 4.38; in assay [2], 4.82.
The matching figures for `CNC(=O)c1ccc(N2CCN(Cc3ccc4c(c3)NC(=O)C(C)O4)CC2)cc1` (configuration not stated): 4.85 and 4.82.
The matching figures for `Cc1cc(CN2CCN(c3ccc(C(=O)NC4CC4)cc3Cl)CC2)cc2c1OC(C)C(=O)N2` (configuration not stated): 4.37 and 8.00.
The matching figures for `CCNC(=O)c1ccc(N2CCN(Cc3cc(C)c4c(c3)NC(=O)C(C)O4)CC2)c(Cl)c1` (configuration not stated): 4.33 and 4.85.
On to `CNC(=O)c1ccc(N2CCN(Cc3cc(C)c4c(c3)NC(=O)C(C)O4)CC2)c(Cl)c1` (configuration not stated), for which the pEC50 was 4.35 in assay [1] and 4.85 in assay [2].
The matching figures for `COc1cc(CN2CCN(c3ccc(C(=O)NC4CC4)cc3)CC2)cc2c1OC(C)C(=O)N2` (configuration not stated): 3.79 and 4.80.
The matching figures for `CCNC(=O)c1ccc(N2CCN(Cc3cc4c(c(OC)c3)OC(C)C(=O)N4)CC2)cc1` (configuration not stated): 3.82 and 4.80.
Take `CNC(=O)c1ccc(N2CCN(Cc3cc4c(c(OC)c3)OC(C)C(=O)N4)CC2)cc1` (configuration not stated): the pEC50 in assay [1] is 3.60; in assay [2] it was 4.57.
With `Cc1cc(CN2CCN(c3ccc(C(=O)NC4CC4)cc3)CC2)cc2c1OC(C)C(=O)N2` (configuration not stated), the figures for the pEC50 in assay [1] and in assay [2] were 4.00 and 5.30, respectively.

Values taken from BindingDB's records for doi:10.1016/j.bmcl.2013.06.055 (Takeda California, 2013).
